Assay results: publication PMC10531095, “Photonics of Some Monomethine Cyanine Dyes in Solutions and in Complexes with Biomolecules” (International Journal of Molecular Sciences, 2023)

Biological target: T1, HSA (Homo sapiens, UniProt P02768)
T1 construct: purchased Sigma-Aldrich
Experiment: FRET parameters between HSA donor fluorophores and MCD acceptors
Type: binding
Details: MCD acceptor
Text: Quenching of intrinsic fluorescence of HSA can occur, in particular, due to energy transfer (Förster resonance energy transfer, FRET) from protein donor fluorophores to MCD acceptor molecules. In the MCD–HSA system, complexation brings acceptors and donors closer together and facilitates FRET. FRET is likely because HSA fluorescence and MCD absorption spectra overlap. For MCD and HSA, the overlap integrals J (see Equation (S7) in Supplementary Materials) were obtained in the order of 2.0–7.0 × 10^15 mol^−1 cm^−1 nm^4 (for MCD 4 see Figure S15 in Supplementary Materials). […] This is probably due to the strong aggregation of MCD 3 in the presence of HSA, which decreases the concentration of monomeric dye molecules active in fluorescence quenching (see Supplementary Materials, Figure S8). […] But as the dye concentration increases, its aggregation is built up steeply, and the fluorescence quenching diminishes.
The parameters of FRET between albumin donor chromophores (tyrosine and tryptophan amino acid residues of HSA) and acceptors (MCD 1–4 molecules) were determined from the spectral fluorescent data using the standard formulae for the spectral overlap integral J (M^−1 cm^−1 nm^4) and critical radius of energy transfer R0 (see Supplementary Material, Equations (S7) and (S8), respectively). […]

T1 sequence (P02768 25-609): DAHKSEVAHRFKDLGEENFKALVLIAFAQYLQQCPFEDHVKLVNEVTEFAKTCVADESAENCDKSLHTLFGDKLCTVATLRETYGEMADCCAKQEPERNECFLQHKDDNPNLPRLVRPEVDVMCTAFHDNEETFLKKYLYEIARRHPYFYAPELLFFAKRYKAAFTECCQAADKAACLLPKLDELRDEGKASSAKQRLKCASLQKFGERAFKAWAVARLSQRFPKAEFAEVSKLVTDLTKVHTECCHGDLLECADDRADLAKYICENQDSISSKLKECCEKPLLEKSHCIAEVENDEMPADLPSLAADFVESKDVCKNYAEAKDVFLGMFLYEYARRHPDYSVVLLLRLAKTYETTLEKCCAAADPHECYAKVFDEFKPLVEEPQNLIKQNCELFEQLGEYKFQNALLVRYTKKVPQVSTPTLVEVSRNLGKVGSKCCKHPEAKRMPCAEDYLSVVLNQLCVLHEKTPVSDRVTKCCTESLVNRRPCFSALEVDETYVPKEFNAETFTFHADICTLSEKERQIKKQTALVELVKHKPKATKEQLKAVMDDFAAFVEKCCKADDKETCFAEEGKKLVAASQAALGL

Compound: CCN1/C(=C/c2sc3ccccc3[n+]2CC)Sc2ccccc21 [MCD 3]
- R0, Förster critical radius: ~ 50 Å
